Results: US20240316074A1 (priority 2021, published 2024)
≈ marks a conversion by molar mass, not a printed value.

What was measured:
Type in all cases: cell-based
[1] = tested on: SARS-CoV-2 variant B.1.1.7; assay: microbe, parasite or virus in culture; details: Severe acute respiratory syndrome coronavirus 2, Vero C1008
[2] = tested on: SARS-CoV-2 variant B.1.351; assay: microbe, parasite or virus in culture; details: Severe acute respiratory syndrome coronavirus 2, Vero C1008
[3] = tested on: SARS-CoV-2 spike pseudotyped lentivirus; assay: organism not typed; details: HEK-293T, read-out: IC50, concentration which reduced pseudovirus infections by half

Row | SMILES | IC50 [1] [µg/mL] | IC50 [2] [µg/mL] | IC50 [3] [µg/mL]
1 | CCCCCc1cc(O)c(C/C=C(\C)CCC=C(C)C)c(O)c1C(=O)O [CBGA, Cannabigerolic acid] | 26 (≈ 72.1 µM) | 37 (≈ 103 µM) | 8.4 (≈ 23.3 µM)
2 | C=C(C)[C@@H]1CCC(C)=C[C@H]1c1c(O)cc(CCCCC)c(C(=O)O)c1O [CBDA, Cannabidiolic acid] | 11 (≈ 30.7 µM) | 19 (≈ 53 µM) | 7.7 (≈ 21.5 µM)
